Reference: PMC9225989 (Signal Transduction and Targeted Therapy, 2022)

Biological target: T1, cannabinoid receptor 1 (CB1R, hCB1R) (Homo sapiens, UniProt P21554)
T1 construct: gene CNR1; purified human CB1R (hCB1R) protein that is close to its full-length (473 amino acids)
Test: biochemical
Format: binding

T1 sequence (P21554 whole entry): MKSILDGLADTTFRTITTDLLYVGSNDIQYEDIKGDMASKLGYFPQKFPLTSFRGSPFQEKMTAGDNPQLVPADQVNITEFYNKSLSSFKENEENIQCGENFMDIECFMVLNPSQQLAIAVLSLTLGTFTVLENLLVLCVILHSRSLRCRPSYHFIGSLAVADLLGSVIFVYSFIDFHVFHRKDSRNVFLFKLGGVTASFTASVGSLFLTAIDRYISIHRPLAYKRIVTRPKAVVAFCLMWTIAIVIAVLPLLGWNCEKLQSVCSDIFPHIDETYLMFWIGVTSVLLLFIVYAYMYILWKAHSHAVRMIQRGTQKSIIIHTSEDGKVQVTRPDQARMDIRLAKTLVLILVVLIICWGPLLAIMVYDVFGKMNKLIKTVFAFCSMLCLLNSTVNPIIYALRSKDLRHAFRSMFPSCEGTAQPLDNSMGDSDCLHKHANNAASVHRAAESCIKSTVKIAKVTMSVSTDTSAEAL

## Cc1cc2c(s1)Nc1ccccc1N=C2N1CCN(C)CC1 [Olz, olanzapine]
  Kd: 2.53 nM

## CN1CCN(C2=Nc3cc(Cl)ccc3Nc3ccccc32)CC1 [Clz, clozapine]
  Kd: 2.65 nM
